Test results as given in paper PMC4721142, “Randomized controlled studies on the efficacy of antiarthritic agents in inhibiting cartilage degeneration and pain associated with progression of osteoarthritis in the rat” (Arthritis Research & Therapy, 2016).
Several values for one entry are separate records, joined by “and”; a condition that tells them apart may be missing. Equal values may be shown once.

Experiments:
[1] = published half-life; cited from earlier work
MMT/MCLT rat model of OA = assay: MMT/MCLT trial 2 histopathology (same doses); assay type: in vivo; design: key to Tibial cartilage degeneration score, 3-zone total: sum of three tibial zone scores (each on 5-point scale); key to Total joint score w/o femur / Total joint score: sum: cartilage degeneration scores + mean osteophyte score; conditions: for Femoral cartilage degeneration score / Total joint score / Bone score / Depth ratio any matrix change, mean / Depth ratio any matrix change, zone 2 / Tibial cartilage degeneration score, 3-zone total / Tibial cartilage degeneration score, zone 1 / Tibial cartilage degeneration score, zone 2 / Tibial cartilage degeneration score, zone 3 / Tibial cartilage degeneration width, substantial (>50% thickness) / Tibial cartilage degeneration width, total / Tibial osteophyte measure / Tibial osteophyte score / Total joint score w/o femur: mean; for % decrease, bone score / % decrease, depth ratio mean / % decrease, femoral cartilage degeneration score / % decrease, osteophyte measure / % decrease, osteophyte score / % decrease, substantial degeneration width / % decrease, tibial score 3-zone total / % decrease, tibial score zone 1 / % decrease, tibial score zone 3 / % decrease, total degeneration width / % decrease, total joint score / % decrease, total joint score w/o femur / % decrease, depth ratio zone 2 / % decrease, tibial score zone 2: vs saline group
From the text: For MMT/MCLT rat knee joints, sections were cut in 200-μm steps; stained with toluidine blue (also with a right and left half per section); and similarly analyzed for cartilage degeneration, proteoglycan loss, collagen damage, and osteophyte formation. Results were averaged across the three sections for an overall semiquantitative score. Regional differences across the tibial plateau were taken into consideration by dividing each section into three zones delineated using an ocular micrometer (outside, middle, and inside). Scores were based on the percentage of area affected within the zone.
Cartilage degeneration in the tibia was scored on a 5-point scale as detailed in the Methods section of Additional file 1. The total extent of degeneration of the tibial plateau was measured (in micrometers) and included an analysis of cell loss, proteoglycan loss, and collagen damage. Significant cartilage degeneration reflecting any degeneration extending through more than 50 % of the cartilage thickness was also measured. Collagen damage across the medial tibial plateau (the most severely affected section of the two halves) was also quantified.
Osteophytes and femoral cartilage degeneration were analyzed as detailed in Additional file 1. Scoring of the osteophytes and categorization into small, medium, and large was performed using an ocular micrometer. The actual osteophyte measurement (tidemark to farthest distance point extending toward the synovium) was also recorded. The femoral cartilage degeneration score and the three-zone sum of the tibial cartilage degeneration scores (mean of three levels) were summed to create a total cartilage degeneration score. The mean osteophyte score for each joint was added to this value to create a total joint score. […]
Histopathology MMT/MCLT Model

SW982 = assay: Synovial toxicity (CellTiter-Glo), with or without TNF-α
Protocol: Viability was measured with the CellTiter-Glo luminescent viability assay (Promega). […] To more accurately predict the effects of the drugs on osteoarthritic synovium, cells were tested with or without TNF-α (20 ng/ml; BioSource).
In Vitro Toxicity Testing with a Synovial Cell Line
Compounds were tested for synovial toxicity using SW982 cells alone or in the presence of TNF as

RAW 264.7 cells = assay: RANKL-mediated osteoclastogenesis / matrix resorption (Osteologic) assay; assay type: cell-based, murine; conditions: for minimal effective concentration: Mus musculus, RAW264.7, 168 h, read-out: Lowest inhibitory concentration, matrix resorption
Procedure, shortened: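 Agents were tested during or after differentiation. Wells were bleached and resorption pits were quantified by image analysis versus RANKL-only controls, using an unpaired t-test.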

[2] = test system: Normal human articular chondrocytes; assay: Cytotoxicity to chondrogenic pellets (CellTiter-Blue)
Protocol: Differentiated chondrogenic pellets were used both to test the ability of drugs to block MMP-13 activity and to test for drug toxicity. […] Supernatants were collected and analyzed for MMP-13 using an enzyme-linked immunosorbent assay (GE Healthcare Life Sciences, Little Chalfont, UK). Cytotoxicity to pellets was assessed using CellTiter-Blue (Promega).

[3] = Comparison of in vitro screens: overlapping effective and nontoxic range; conditions: for Overlapping effective and nontoxic range: inhibits with minimal or no toxicity to synovium or cartilage, overlapping range if effective in more than one assay;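 as to all read-outs here: compares non-toxic ranges in synovial cells and chondrocytes with effective ranges against NFkB, MMP-13 and osteoclasts, giving their overlap as the predicted efficacy range in uM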
[4] = tacrolimus 30 ng i.a., clonidine 100 μg/kg s.c.
[5] = i.a., tacrolimus 15 ng, curcumin 30 μg

Clc1cccc(Cl)c1N=C1NCCN1 [Clonidine]
t 1/2 [1]: α2-Receptor agonist and antihypertensive agent Possible induction of iNOS through NF-κB [77] t 1/2 = 6–20 h
Femoral cartilage degeneration score (MMT/MCLT rat model of OA; i.a., tacrolimus 15 ng): 0.67 ± 0.23
Total joint score (MMT/MCLT rat model of OA; i.a., tacrolimus 15 ng): 9.13 ± 0.54
Femoral cartilage degeneration score (MMT/MCLT rat model of OA; [4]): 0.77 ± 0.28
Total joint score (MMT/MCLT rat model of OA; [4]): 11.03 ± 0.61
Non-toxic range (Synovial) (SW982): 1.56 to 100 µM
Lowest inhibitory concentration, matrix resorption (RAW 264.7 cells): 10 µM
Non-toxic range (Chondrocyte) [2]: 0.156 to 100 µM
Overlapping effective and nontoxic range [3]: 10 to 100 µM

CC1=C(CO)C(=O)O[C@@H]([C@@H](C)[C@H]2CC[C@H]3[C@@H]4C[C@H]5O[C@]56[C@@H](O)C=CC(=O)[C@]6(C)[C@H]4CC[C@]23C)C1 [Withaferin A]
t 1/2 [1]: Reportedly inhibits NF-κB activation by preventing the TNF-α-induced activation of IKK-β (IKK-2) [102] Blocks osteoclastogenesis of bone remodeling [103] t 1/2 = 1.36 h
Non-toxic range (Synovial) (SW982): Toxic
minimal effective concentration (RAW 264.7 cells): 0.53 µM
Non-toxic range (Chondrocyte) [2]: 0.27 to 2.1 µM
Non-toxic & predicted range of efficacy [3]: 0.27 to 2.1 µM
Overlapping effective and nontoxic range [3]: 4.25 to 17 µM

C=CC[C@@H]1/C=C(\C)C[C@H](C)C[C@H](OC)[C@H]2O[C@@](O)(C(=O)C(=O)N3CCCC[C@H]3C(=O)O[C@H](/C(C)=C/[C@@H]3CC[C@@H](O)[C@H](OC)C3)[C@H](C)[C@@H](O)CC1=O)[C@H](C)C[C@@H]2OC [Tacrolimus]
Bone score (MMT/MCLT rat model of OA; i.a., tacrolimus 15 ng): 2.60
Depth ratio any matrix change, mean (MMT/MCLT rat model of OA; i.a., tacrolimus 15 ng): 0.25
Depth ratio any matrix change, zone 2 (MMT/MCLT rat model of OA; i.a., tacrolimus 15 ng): 0.06
Femoral cartilage degeneration score (MMT/MCLT rat model of OA; i.a., tacrolimus 15 ng): 0.87 and 0.87 ± 0.36
Tibial cartilage degeneration score, 3-zone total (MMT/MCLT rat model of OA; i.a., tacrolimus 15 ng): 4.43
Tibial cartilage degeneration score, zone 1 (MMT/MCLT rat model of OA; i.a., tacrolimus 15 ng): 3.37
Tibial cartilage degeneration score, zone 2 (MMT/MCLT rat model of OA; i.a., tacrolimus 15 ng): 1.07
Tibial cartilage degeneration score, zone 3 (MMT/MCLT rat model of OA; i.a., tacrolimus 15 ng): 0.00
Tibial cartilage degeneration width, substantial (>50% thickness) (MMT/MCLT rat model of OA; i.a., tacrolimus 15 ng): 536.67 µm
Tibial cartilage degeneration width, total (MMT/MCLT rat model of OA; i.a., tacrolimus 15 ng): 1060.00 µm
Tibial osteophyte measure (MMT/MCLT rat model of OA; i.a., tacrolimus 15 ng): 446.67 µm
Tibial osteophyte score (MMT/MCLT rat model of OA; i.a., tacrolimus 15 ng): 3.30
Total joint score (MMT/MCLT rat model of OA; i.a., tacrolimus 15 ng): 8.60 and 8.60 ± 0.63
Total joint score w/o femur (MMT/MCLT rat model of OA; i.a., tacrolimus 15 ng): 7.73
Bone score (MMT/MCLT rat model of OA; [4]): 2.60
Depth ratio any matrix change, mean (MMT/MCLT rat model of OA; [4]): 0.28
Depth ratio any matrix change, zone 2 (MMT/MCLT rat model of OA; [4]): 0.08
Femoral cartilage degeneration score (MMT/MCLT rat model of OA; [4]): 0.80 and 0.8 ± 0.19
Tibial cartilage degeneration score, 3-zone total (MMT/MCLT rat model of OA; [4]): 4.73
Tibial cartilage degeneration score, zone 1 (MMT/MCLT rat model of OA; [4]): 3.50
Tibial cartilage degeneration score, zone 2 (MMT/MCLT rat model of OA; [4]): 1.20
Tibial cartilage degeneration score, zone 3 (MMT/MCLT rat model of OA; [4]): 0.03
Tibial cartilage degeneration width, substantial (>50% thickness) (MMT/MCLT rat model of OA; [4]): 576.67 µm
Tibial cartilage degeneration width, total (MMT/MCLT rat model of OA; [4]): 1090.00 µm
Tibial osteophyte measure (MMT/MCLT rat model of OA; [4]): 457.33 µm
Tibial osteophyte score (MMT/MCLT rat model of OA; [4]): 3.37
Total joint score (MMT/MCLT rat model of OA; [4]): 8.90 and 8.90 ± 0.66
Total joint score w/o femur (MMT/MCLT rat model of OA; [4]): 8.10
% decrease, width of severe collagen degeneration (MMT/MCLT rat model of OA; tacrolimus 15 ng i.a.): 86%
% decrease, width of severe collagen degeneration (MMT/MCLT rat model of OA; tacrolimus 30 ng i.a.): 87%
% decrease, bone score (MMT/MCLT rat model of OA; i.a., tacrolimus 15 ng): 19%
% decrease, depth ratio mean (MMT/MCLT rat model of OA; i.a., tacrolimus 15 ng): 23%
% decrease, femoral cartilage degeneration score (MMT/MCLT rat model of OA; i.a., tacrolimus 15 ng): 19%
% decrease, osteophyte measure (MMT/MCLT rat model of OA; i.a., tacrolimus 15 ng): 5%
% decrease, osteophyte score (MMT/MCLT rat model of OA; i.a., tacrolimus 15 ng): 7%
% decrease, substantial degeneration width (MMT/MCLT rat model of OA; i.a., tacrolimus 15 ng): 17%
% decrease, tibial score 3-zone total (MMT/MCLT rat model of OA; i.a., tacrolimus 15 ng): 21%
% decrease, tibial score zone 1 (MMT/MCLT rat model of OA; i.a., tacrolimus 15 ng): 10%
% decrease, tibial score zone 3 (MMT/MCLT rat model of OA; i.a., tacrolimus 15 ng): 100%
% decrease, total degeneration width (MMT/MCLT rat model of OA; i.a., tacrolimus 15 ng): 12%
% decrease, total joint score (MMT/MCLT rat model of OA; i.a., tacrolimus 15 ng): 16%
% decrease, total joint score w/o femur (MMT/MCLT rat model of OA; i.a., tacrolimus 15 ng): 16%
% decrease, depth ratio zone 2 (MMT/MCLT rat model of OA; [5]): 59%
% decrease, tibial score zone 2 (MMT/MCLT rat model of OA; [5]): 42%
% decrease, bone score (MMT/MCLT rat model of OA; tacrolimus 30 ng i.a.): 19%
% decrease, depth ratio mean (MMT/MCLT rat model of OA; tacrolimus 30 ng i.a.): 15%
% decrease, depth ratio zone 2 (MMT/MCLT rat model of OA; tacrolimus 30 ng i.a.): 50%
% decrease, femoral cartilage degeneration score (MMT/MCLT rat model of OA; tacrolimus 30 ng i.a.): 25%
% decrease, osteophyte measure (MMT/MCLT rat model of OA; tacrolimus 30 ng i.a.): 3%
% decrease, osteophyte score (MMT/MCLT rat model of OA; tacrolimus 30 ng i.a.): 6%
% decrease, substantial degeneration width (MMT/MCLT rat model of OA; tacrolimus 30 ng i.a.): 11%
% decrease, tibial score 3-zone total (MMT/MCLT rat model of OA; tacrolimus 30 ng i.a.): 15%
% decrease, tibial score zone 1 (MMT/MCLT rat model of OA; tacrolimus 30 ng i.a.): 6%
% decrease, tibial score zone 2 (MMT/MCLT rat model of OA; tacrolimus 30 ng i.a.): 35%
% decrease, tibial score zone 3 (MMT/MCLT rat model of OA; tacrolimus 30 ng i.a.): 0%
% decrease, total degeneration width (MMT/MCLT rat model of OA; tacrolimus 30 ng i.a.): 10%
% decrease, total joint score (MMT/MCLT rat model of OA; tacrolimus 30 ng i.a.): 13%
% decrease, total joint score w/o femur (MMT/MCLT rat model of OA; tacrolimus 30 ng i.a.): 12%
Non-toxic range (Synovial) (SW982): 1.5 to 100 µM
minimal effective concentration (RAW 264.7 cells): 0.0026 µM
Non-toxic range (Chondrocyte) [2]: 0.8 to 50 µM
Non-toxic & predicted range of efficacy [3]: 25 to 50 µM
Overlapping effective and nontoxic range [3]: 50 µM

CC(C)(C)CC(=O)OCC(=O)[C@@]12OC(C)(C)O[C@@H]1C[C@H]1[C@@H]3CCC4=CC(=O)C=C[C@]4(C)[C@@]3(F)[C@@H](O)C[C@@]12C [Triamcinolone hexacetonide]
t 1/2 [1]: Steroid t 1/2 = 88 min
Femoral cartilage degeneration score (MMT/MCLT rat model of OA; i.a., tacrolimus 15 ng): 2.03 ± 0.52
Total joint score (MMT/MCLT rat model of OA; i.a., tacrolimus 15 ng): 11.30 ± 1.21
Non-toxic range (Synovial) (SW982): 3.12 to 400 µM
minimal effective concentration (RAW 264.7 cells): 0.297 µM
Overlapping effective and nontoxic range [3]: 62.5 to 3750 µM

COc1cc(/C=C/C(=O)CC(=O)/C=C/c2ccc(O)c(OC)c2)ccc1O [Curcumin, Diferuloylmethane]
t 1/2 intestinal [1]: 10 min
t 1/2 plasma [1]: 30 to 50 min
Femoral cartilage degeneration score (MMT/MCLT rat model of OA; i.a., tacrolimus 15 ng): 1.63 ± 0.61
Total joint score (MMT/MCLT rat model of OA; i.a., tacrolimus 15 ng): 9.57 ± 0.91
% decrease, tibial score zone 2 (MMT/MCLT rat model of OA; [5]): 40%
Non-toxic range (Synovial) (SW982): 1.7 to 54 µM
Non-toxic range (Chondrocyte) [2]: 0.84 to 27 µM

COc1ccc(C=CC(=O)Nc2ccccc2C(=O)O)cc1OC [Tranilast, N-(3′,4′-dimethoxycinnamoyl)anthranilic acid]
t 1/2 [1]: Anti-inflammatory and analgesic properties in collagen-induced arthritis (RA model) [34]. Suppresses COX-2 and iNOS expression, reduces PGE2 and iNOS-derived NO production in stimulated macrophages. Diminishes TNF-α and IL-1β production [35]. T1/2 = 7.4 h
Non-toxic range (Synovial) (SW982): 0.125 to 8 µM
minimal effective concentration (RAW 264.7 cells): 0.5 µM
Non-toxic range (Chondrocyte) [2]: 125000 to 8e+06 µM
Non-toxic & predicted range of efficacy [3]: 1 to 8 µM
Overlapping effective and nontoxic range [3]: 1 to 8 µM

CC1(C)O[C@@H]2C[C@H]3[C@@H]4C[C@H](F)C5=CC(=O)C=C[C@]5(C)[C@@]4(F)[C@@H](O)C[C@]3(C)[C@]2(C(=O)CO)O1 [Fluocinolone, Fluocinolone Acetonide]
t 1/2 [1]: Corticosteroid (potent) Blocks IL-1 and TNF production and TNF-induced apoptosis [92] t 1/2 = 1.3 – 1.7 h
Femoral cartilage degeneration score (MMT/MCLT rat model of OA; i.a., tacrolimus 15 ng): 0.8 ± 0.25
Total joint score (MMT/MCLT rat model of OA; i.a., tacrolimus 15 ng): 9.80 ± 0.51
Non-toxic range (Synovial) (SW982): 1.56 to 100 µM
Effective range against Osteoclasts (RAW 264.7 cells): ≥ 9.77 nM
minimal effective concentration (RAW 264.7 cells): 0.00977 µM
Non-toxic range (Chondrocyte) [2]: 1.56 to 250 µM
Non-toxic & predicted range of efficacy [3]: 3.1 to 250 µM
Overlapping effective and nontoxic range [3]: 3.1 to 100 µM
